Experimental data as given in patent US20230390319A1, “INTERFERON GENE STIMULATOR COMPOSITION COMPRISING INDOLIZINE DERIVATIVE AS ACTIVE INGREDIENT” (AJOU UNIVERSITY INDUSTRY-ACADEMIC COOPERATION FOUNDATION, priority 2020, published 2023).

Columns and labels:
ISRE reporter signal = assay: ISRE luciferase reporter assay, THP-1 cells co-treated with compound and cGAMP; format: cell-based, Human; conditions: THP-1 cells, 20 μM of each compound, co-treated with cGAMP (1 μg/ml), 24 hours
Experimental: (§1) Human monocytic THP-1 wild-type (WT) and STING knockout (KO) cell lines were obtained from InvivoGen. Cells were cultured in 1×RPMI 1640 medium containing 10% fetal bovine serum (FBS, Hyclone), 2.05 mM L-glutamine (Hyclone) and 1% penicillin (Corning) in a humidified incubator at 37° C. under 5% CO2.
To confirm immune responses, THP-1 cells were placed in 384-well plates (Grenier), and treated with each compound and cGAMP (1 μg/ml), and after 24 hours, ISRE activity was analyzed. QUANTI-Luc assay (InvivoGen) was performed using the cell culture supernatant to confirm the luciferase reporter gene signal. Fluorescent signals were measured using a TECAN micro plate reader SPARK, and the results were normalized to DMSO control.
(§2) THP-1 cells were co-treated with each of 86 indolizine derivatives and a very small amount of cGAMP (1 μg/ml), the immune response of the THP-1 cells was examined by ISRE reporter assay, and the cytotoxicity of co-treatment was also evaluated (Table 1). All results were compared by normalization to the reporter assay results obtained by treatment with cGAMP alone. […] Thus, Compound 42 was used in subsequent experiments.

THP-1 cells = assay: Cell viability assay (CellTiter Clo) in THP-1 cells; format: cell-based, Human; conditions: THP-1 cells, 20 μM of each compound, co-treated with cGAMP (1 μg/ml)
Experimental: as §1
Cells were analyzed using CellTiter Clo (CTG, Promega). […] was measured using a TECAN micro plate reader SPARK. Results were normalized to DMSO control.
as §2

Row | Compound | Normalized RU (relative unit of ISRE reporter signal) (ISRE reporter signal) | Normalized cell viability (THP-1 cells)
1 | COc1ccc(-c2cc(C(=O)c3ccc(C(F)(F)F)cc3)n3ccccc23)cc1 [Compound 44] | 0.89 | 1.24
2 | CN(C)c1ccc(-c2cc(C(=O)c3ccc(C(F)(F)F)cc3)n3ccccc23)cc1 [Compound 45] | 1.28 | 1.22
3 | O=C(c1ccccc1)c1cc(-c2ccc(C(F)(F)F)cc2)c2ccccn12 [Compound 46] | 1.08 | 1.25
4 | CC(=O)c1ccc(-c2cc(C(=O)c3ccccc3)n3ccccc23)cc1 [Compound 47] | 1.15 | 1.12
5 | O=C(c1ccccc1)c1cc(-c2ccccc2)c2ccccn12 [Compound 48] | 1.37 | 1.18
6 | COc1ccc(-c2cc(C(=O)c3ccccc3)n3ccccc23)cc1 [Compound 49] | 1.17 | 1.21
7 | CN(C)c1ccc(-c2cc(C(=O)c3ccccc3)n3ccccc23)cc1 [Compound 50] | 1.18 | 1.30
8 | COc1ccc(C(=O)c2cc(-c3ccc(C(F)(F)F)cc3)c3ccccn23)cc1 [Compound 51] | 6.08 | 1.32
9 | COc1ccc(C(=O)c2cc(-c3ccc(C(C)=O)cc3)c3ccccn23)cc1 [Compound 52] | 1.61 | 1.15
10 | COc1ccc(C(=O)c2cc(-c3ccccc3)c3ccccn23)cc1 [Compound 53] | 1.30 | 1.18
11 | COc1ccc(C(=O)c2cc(-c3ccc(OC)cc3)c3ccccn23)cc1 [Compound 54] | 1.51 | 1.16
12 | COc1ccc(C(=O)c2cc(-c3ccc(N(C)C)cc3)c3ccccn23)cc1 [Compound 55] | 1.65 | 1.24
13 | CCN(CC)c1ccc(C(=O)c2cc(-c3ccc(C(F)(F)F)cc3)c3ccccn23)cc1 [Compound 56] | 1.40 | 1.23
14 | CCN(CC)c1ccc(C(=O)c2cc(-c3ccc(C(C)=O)cc3)c3ccccn23)cc1 [Compound 57] | 0.93 | 1.40
15 | CCN(CC)c1ccc(C(=O)c2cc(-c3ccccc3)c3ccccn23)cc1 [Compound 58] | 0.66 | 1.01
16 | CCN(CC)c1ccc(C(=O)c2cc(-c3ccc(OC)cc3)c3ccccn23)cc1 [Compound 59] | 1.27 | 1.09
17 | CCN(CC)c1ccc(C(=O)c2cc(-c3ccc(N(C)C)cc3)c3ccccn23)cc1 [Compound 60] | 1.25 | 1.28
18 | CC(=O)c1ccn2c(C(=O)c3ccccc3)cc(-c3ccncc3)c2c1 [Compound 61] | 1.98 | 1.11
19 | CC(=O)c1ccn2c(C(=O)c3ccccc3)cc(-c3ccc(C)c(N)c3)c2c1 [Compound 62] | 2.86 | 1.23
20 | CC(=O)c1ccn2c(C(=O)c3ccccc3)cc(-c3ccc(N)cc3)c2c1 [Compound 63] | 2.08 | 0.98
21 | CCN(CC)c1ccc(-c2cc(C(=O)c3ccccc3)n3ccc(C(C)=O)cc23)cc1 [Compound 64] | 1.13 | 1.24
22 | CCCN(CCC)c1ccc(-c2cc(C(=O)c3ccccc3)n3ccc(C(C)=O)cc23)cc1 [Compound 65] | 1.13 | 1.25

Row | Compound | Normalized RU (relative unit of ISRE reporter signal) (ISRE reporter signal) | Normalized cell viability (THP-1 cells)
23 | CC(=O)c1ccn2c(C(=O)c3ccccc3)cc(-c3ccc(C(=O)O)cc3)c2c1 [Compound 66] | 1.16 | 1.32
24 | O=C(c1ccccc1)c1cc(-c2ccncc2)c2ccccn12 [Compound 67] | 2.03 | 1.34
25 | Cc1ccc(-c2cc(C(=O)c3ccccc3)n3ccccc23)cc1N [Compound 68] | 3.16 | 1.17
26 | Nc1ccc(-c2cc(C(=O)c3ccccc3)n3ccccc23)cc1 [Compound 69] | 2.47 | 1.19
27 | CCN(CC)c1ccc(-c2cc(C(=O)c3ccccc3)n3ccccc23)cc1 [Compound 70] | 1.21 | 1.19
28 | CCCN(CCC)c1ccc(-c2cc(C(=O)c3ccccc3)n3ccccc23)cc1 [Compound 71] | 0.96 | 1.01
29 | CC(=O)c1cc(-c2ccc(C(F)(F)F)cc2)c2cc(C(F)(F)F)ccn12 [Compound 73] | 1.54 | 0.78
30 | CC(=O)c1ccc(-c2cc(C(C)=O)n3ccc(C(F)(F)F)cc23)cc1 [Compound 74] | 2.06 | 0.75
31 | CC(=O)c1cc(-c2ccccc2)c2cc(C(F)(F)F)ccn12 [Compound 75] | 1.76 | 1.25
32 | COc1ccc(-c2cc(C(C)=O)n3ccc(C(F)(F)F)cc23)cc1 [Compound 76] | 2.02 | 1.14
33 | CC(=O)c1cc(-c2ccc(N(C)C)cc2)c2cc(C(F)(F)F)ccn12 [Compound 77] | 1.24 | 1.28
34 | CC(=O)c1ccn2c(C(C)=O)cc(-c3ccc(C(F)(F)F)cc3)c2c1 [Compound 78] | 2.43 | 0.46
35 | CC(=O)c1ccc(-c2cc(C(C)=O)n3ccc(C(C)=O)cc23)cc1 [Compound 79] | 3.80 | 1.19
36 | CC(=O)c1ccn2c(C(C)=O)cc(-c3ccccc3)c2c1 [Compound 80] | 1.98 | 1.22
37 | COc1ccc(-c2cc(C(C)=O)n3ccc(C(C)=O)cc23)cc1 [Compound 81] | 2.27 | 1.17
38 | CC(=O)c1ccn2c(C(C)=O)cc(-c3ccc(N(C)C)cc3)c2c1 [Compound 82] | 2.57 | 1.16
39 | CC(=O)c1cc(-c2ccc(C(F)(F)F)cc2)c2ccccn12 [Compound 83] | 0.98 | 1.22
40 | CC(=O)c1ccc(-c2cc(C(C)=O)n3ccccc23)cc1 [Compound 84] | 2.37 | 1.10
41 | CC(=O)c1cc(-c2ccccc2)c2ccccn12 [Compound 85] | 2.90 | 1.22
42 | COc1ccc(-c2cc(C(C)=O)n3ccccc23)cc1 [Compound 86] | 2.46 | 1.22
43 | CC(=O)c1cc(-c2ccc(N(C)C)cc2)c2ccccn12 [Compound 87] | 2.59 | 1.30
